From US7402580B2, “Fused pyridazine derivative compounds and drugs containing these compounds as the active ingredient” (Ono Pharmaceutical Co., Ltd., priority 2002, dated 2008)
pIC50: −log10 of the molar value.

Target: T1, PARP (TREVIGEN) (Homo sapiens, UniProt P09874)
T1 construct: purchased TREVIGEN
Test: Enzyme assay in vitro (PARP inhibitory activity, 3H-NAD incorporation)
Assay type: biochemical
Settings: 50% inhibitory concentration, control (distilled water) = 100%; reaction 10 minutes at room temperature
Method: The below procedure was carried out with 96 well plate at room temperature. In a final volume of […], the reaction mixture contained each 10 μL of 500 mM Tris/HCl (pH 8.0, WAKO), 100 mM MgCl2, 50 mM dithiothreitol (sigma), 1 mg/mL activated DNA and 1 mM NAD (containing ^3H-NAD). The 10 μL of test compound was added to the reaction mixture and the reaction was started by addition of 10 μL of 0.1 U/μL PARP (TREVIGEN). The reaction was terminated at 10 minutes by addition of 100 μL of 20% trichloroacetic acid. Poly(ADP-ribose), which is the reaction product, was collected on a glass fiber filter (GF/C, PACKARD). The radioactivity was measured by topcount (PACKARD). Inhibitory activity of the compound was represented by 50% inhibitory concentration calculated as 100% of control (distilled water).

T1 sequence (P09874 whole entry): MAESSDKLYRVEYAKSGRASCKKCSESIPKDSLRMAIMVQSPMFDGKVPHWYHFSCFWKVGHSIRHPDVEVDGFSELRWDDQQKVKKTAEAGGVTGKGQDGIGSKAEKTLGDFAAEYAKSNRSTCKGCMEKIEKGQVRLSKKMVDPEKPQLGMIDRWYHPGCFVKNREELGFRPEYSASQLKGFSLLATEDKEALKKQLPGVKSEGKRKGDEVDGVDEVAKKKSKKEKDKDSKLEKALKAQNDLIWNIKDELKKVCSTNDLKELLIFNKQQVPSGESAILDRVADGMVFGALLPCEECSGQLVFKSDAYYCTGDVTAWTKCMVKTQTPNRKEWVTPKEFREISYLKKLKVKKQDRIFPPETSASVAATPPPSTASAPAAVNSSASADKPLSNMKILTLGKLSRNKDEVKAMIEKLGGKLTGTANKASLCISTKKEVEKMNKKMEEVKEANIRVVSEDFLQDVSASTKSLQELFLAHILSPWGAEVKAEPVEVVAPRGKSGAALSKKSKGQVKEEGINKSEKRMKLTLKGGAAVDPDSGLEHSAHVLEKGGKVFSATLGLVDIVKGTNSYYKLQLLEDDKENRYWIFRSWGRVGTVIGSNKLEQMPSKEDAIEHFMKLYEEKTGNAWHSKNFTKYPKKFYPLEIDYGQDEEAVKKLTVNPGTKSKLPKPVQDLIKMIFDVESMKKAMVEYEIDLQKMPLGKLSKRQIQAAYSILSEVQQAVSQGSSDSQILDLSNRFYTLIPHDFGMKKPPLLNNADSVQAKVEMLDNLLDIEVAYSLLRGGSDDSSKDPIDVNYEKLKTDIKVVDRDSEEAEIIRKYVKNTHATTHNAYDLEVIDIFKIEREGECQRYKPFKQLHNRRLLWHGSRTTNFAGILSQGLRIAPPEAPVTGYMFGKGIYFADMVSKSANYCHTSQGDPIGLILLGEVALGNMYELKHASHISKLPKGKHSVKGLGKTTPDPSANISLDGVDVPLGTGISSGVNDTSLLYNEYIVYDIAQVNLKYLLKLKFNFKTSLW

| pIC50 | Structure (SMILES) |
| --- | --- |
| 6.21 | Nc1cc(N)cc(C2=NNC(=O)C3CSCCN23)c1 (stereo not drawn) [6(9), 4-(3,5-diaminophenyl)-6,7,9,9a-tetrahydro[1,4]thiazino[4,3-d][1,2,4]triazin-1(2H)-one] |
| 7.00 | Nc1cccc(-c2n[nH]c(=O)c3c2NCCC3)c1 [11(4), 8-(3-aminophenyl)-2,3,4,6-tetrahydropyrido[2,3-d]pyridazin-5(1H)-one] |
| 6.54 | NCCNC(=O)Cc1n[nH]c(=O)c2c1CCCC2 [30(4), 4-(N-(2-aminoethyl)carbamoylmethyl)-5,6,7,8-tetrahydrophthalazin-1(2H)-one] |
